Measured values reported in patent US7601736B2, “Pyridine derivatives, a process for their preparation and a pharmaceutical composition containing the same” (SK Chemicals Co., Ltd., priority 2003, dated 2009).

Legend:
[1] = tested on: TNF-α; assay: Cytokine inhibitory activity in human whole blood (LPS), TNF-α ELISA; assay type: cell-based; details: LPS 1 μg/mL, read-out: TNF-α Inhibition rate (conc.); for inhibition at 0.1 µg/mL: test conc. 100 ng/mL
Protocol: (§1) 20 mL of venous whole blood collected respectively from 5 healthy volunteers of men or women, who had never been medicated with anti-inflammatory drugs within the last two weeks, and was added with heparin. 1 mL each of the above blood was respectively collected, and transferred into test tubes in which it was mixed with test material. The above mixture was precultured at 37° C. for about 1 hour. Then it was added with 1 μg/mL of LPS (lipopolysaccharide), allowed to react at the same temperature for about 4 to about 12 hours and then centrifuged at 4° C. at the rate of 3000 rpm for about 10 minutes. Thus produced plasma was respectively collected and its TNF-α in each plasma was quantitated using human TNF-α ELISA kit based on the amount of recombinant TNF-α in humans. The plate used was coated with anti-human TNF-α monoclone IgG antibodies. Likewise, for the test of IL-1α, IL-1α in each plasma was quantitated using the above plasma and human IL-1α ELISA kit based on the amount of recombinant IL-1α in humans. The plate used was coated with anti-human IL-1α monoclone IgG antibodies. Further, for the test of PGE2, PGE2 in each plasma was quantitated using the above plasma and PGE2 ELISA kit based on the amount of recombinant PGE2 in humans. The plate used was coated with anti-human PGE2 monoclone IgG antibodies. From the above tests, inhibitory rates on the expression of each cytokine were obtained and they were compared to that of Indomethacin.

[2] = tested on: IL-6; assay: Cytokine inhibitory activity in animal model (LPS-treated SD rats), plasma IL-6; assay type: in vivo, Sprague Dawley (SD) rats; details: oral
Protocol: (§2) Sprague Dawley (SD) rats with body weights of about 180 to about 200 g were fasted (free drinking) and then tested. […] After 2 hours, the rats were sacrificed and bloods were collected from abdominal vein, stored at room temperature for about 2 hours, and then centrifuged at 12,000 rpm for about 2 minutes. Thus produced plasma was respectively collected and its TNF-α in each plasma was quantitated using mouse TNF-α ELISA kit based on the amount of recombinant TNF-α in rats. The plate used was coated with anti-rat TNF-α monoclone IgG antibodies. Likewise, for the test of IL-1α, IL-1α in each plasma was quantitated using the above plasma and mouse IL-1α ELISA kit based on the amount of recombinant IL-1α in rats. The plate used was coated with anti-rat IL-1α monoclone IgG antibodies. Further, for the test of IL-6, IL-6 in each plasma was quantitated using the above plasma and mouse IL-6 ELISA kit based on the amount of recombinant IL-6 in rats. Further, for the test of INF-γ, INF-γ in each plasma was quantitated using the above plasma and mouse INF-γ ELISA kit based on the amount of recombinant INF-γ in rats. The plate used was coated with anti-rat INF-γ monoclone IgG antibodies. From the above tests, inhibitory rates on the expression of each cytokine were obtained and they were compared to that of Indomethacin.

[3] = tested on: ICR (Institute of Cancer Research) mouse; assay: Croton oil-induced ear edema test; assay type: in vivo; details: oral
Protocol: Male ICR (Institute of Cancer Research) mouse with body weight of about 20 to 30 g were tested wherein each group had 6 mouses. After 1 hour of the oral administration of a test compound, Croton oil (in acetone solution) was coated on one of the ears. After 4 hours, the thickness of the swollen ear in treated group was compared with the other unswollen ear and obtained the average increase rate in thickness of ear by the treatment.

[4] = tested on: INF-γ; assay: Cytokine inhibitory activity in animal model (LPS-treated SD rats), plasma INF-γ; assay type: in vivo, Sprague Dawley (SD) rats; details: oral
Protocol: as §2

[5] = tested on: ICR (Institute of Cancer Research) mouse; assay: Analgesic test (acetic acid-induced stretchings); assay type: in vivo; details: oral
Protocol: Male ICR (Institute of Cancer Research) mouse with body weight of about 20 to 30 g were tested wherein each group had 6 mouses. After 1 hour of the oral administration of a test compound, acetic acid (in distilled water) was abdominally administered. For the duration of 10 minutes, the animals were observed regarding the number of stretchings and the number was compared with that of placebo treated group and the result is shown in the following table 7.

[6] = tested on: TNF-α; assay: Cytokine inhibitory activity in animal model (LPS-treated SD rats), plasma TNF-α; assay type: in vivo, Sprague Dawley (SD) rats; details: Rattus norvegicus, 2 h; SD rats, oral, LPS; 40 mg/kg; read-out: TNF-α Inhibition Rate (Conc.)
Protocol: Sprague Dawley (SD) rats with body weights of about 180 to about 200 g were fasted (free drinking) and then tested. Test compounds were administered orally at 40 mg/kg and then abdominally administered with LPS 1 μg/mL after 1 hour. After 2 hours, the rats were sacrificed and bloods were collected from abdominal vein, stored at room temperature for about 2 hours, and then centrifuged at 12,000 rpm for about 2 minutes. Thus produced plasma was respectively collected and its TNF-α in each plasma was quantitated using mouse TNF-α ELISA kit based on the amount of recombinant TNF-α in rats. The plate used was coated with anti-rat TNF-α monoclone IgG antibodies. Likewise, for the test of IL-1α, IL-1α in each plasma was quantitated using the above plasma and mouse IL-1α ELISA kit based on the amount of recombinant IL-1α in rats. The plate used was coated with anti-rat IL-1α monoclone IgG antibodies. Further, for the test of IL-6, IL-6 in each plasma was quantitated using the above plasma and mouse IL-6 ELISA kit based on the amount of recombinant IL-6 in rats. Further, for the test of INF-γ, INF-γ in each plasma was quantitated using the above plasma and mouse INF-γ ELISA kit based on the amount of recombinant INF-γ in rats. The plate used was coated with anti-rat INF-γ monoclone IgG antibodies. From the above tests, inhibitory rates on the expression of each cytokine were obtained and they were compared to that of Indomethacin.

[7] = tested on: IL-1α; assay: Cytokine inhibitory activity in animal model (LPS-treated SD rats), plasma IL-1α; assay type: in vivo, Sprague Dawley (SD) rats; details: oral
Protocol: as §2

[8] = tested on: TNF-α; assay: Cytokine inhibitory activity in cells: LPS-induced TNF-α in RAW 264.7; assay type: cell-based, murine; details: Mus musculus, RAW264.7, RAW 264.7, LPS 1 μg/mL, read-out: TNF-α Inhibition Rate (%); for inhibition at 1 µM: test conc. 1 μM; for inhibition at 10 µM: test conc. 10 μM; for inhibition at 100 µM: test conc. 100 μM; for inhibition at 1000 µM: test conc. 1 mM
Protocol: General reagents used were purchased from Sigma-Aldrich chem. Co. and cytokine inhibitory activities were tested as follows. Mediums and reagents used in cell culture were purchased from GIBCO BRL (USA), and mouse TNF-α ELISA kit was purchased from R&D system (USA). The apparatus used ELISA reader (Spectra max-Plus 384, Molecular Device, USA).
Murine macrophage cell line RAW 264.7 was kindly provided by Korean Tissue Culture Center (KTCC). The cell line was cultured in DMEM medium containing 10% FBS, in a cell culturing device at the condition of 37° C., 5% CO2. First, murine RAW 264.7 was cultured in DMEM medium containing 10% FBS for about 24 hours, and cells were planted 200 μL each in 96 well plates at the concentration of 5×10^5/mL and cultured for about 24 hours. Then, test compounds were treated at various concentrations and then reacted at 37° C. for about 1 hour, wherein 1 μg/mL of lipopolysaccharide (LPS) was added thereto and reacted at 37° C. for about 12 hours. The supernatant was recovered and the amount of murine TNF-α on the medium was quantitated using ELISA kit. Thalidomide was respectively used as a positive and a negative control to compare the activities and the results are shown in the following tables 4a -4c.

[9] = tested on: ICR (Institute of Cancer Research) mouse; assay: Arachidonic acid-induced ear edema test; assay type: in vivo; details: oral
Protocol: Male ICR (Institute of Cancer Research) mouse with body weight of about 20 to 30 g were tested wherein each group had 6 mouses. After 1 hour of the oral administration of a test compound, Arachidonic acid (in acetone solution) was coated on one of the ears. After 1 hour, the thickness of the swollen ear in treated group was compared with the other unswollen ear and obtained the average increase rate in thickness of ear by the treatment.

[10] = tested on: IL-1α; assay: Cytokine inhibitory activity in human whole blood (LPS), IL-1α ELISA; assay type: cell-based; details: LPS 1 μg/mL, read-out: IL-1α Inhibition rate (conc.); for inhibition at 0.1 µg/mL: test conc. 100 ng/mL
Protocol: as §1

[11] = tested on: PGE2; assay: Cytokine inhibitory activity in human whole blood (LPS), PGE2 ELISA; assay type: cell-based; details: LPS 1 μg/mL, read-out: PGE2 Inhibition rate (conc.); for inhibition at 300 µg/mL: test conc. 300 μg/mL
Protocol: as §1

[12] = tested on: TNF-α; assay: Cytokine inhibitory activity in animal model (LPS-treated SD rats), plasma TNF-α; assay type: in vivo, Sprague Dawley (SD) rats; details: Rattus norvegicus, 2 h, oral, read-out: TNF-α Inhibition Rate (Conc.)

Compound	inhibition at 0.1 µg/mL [1] [%]	IL-6 Inhibition rate (conc.) ([2]; 40 mg/kg)	Inhibition Rate (%) ([3]; 2 mg/kg)	Inhibition Rate (%) ([3]; 10 mg/kg)	Inhibition Rate (%) ([3]; 50 mg/kg)	INF-γ Inhibition rate (conc.) ([4]; 40 mg/kg)	Inhibition Rate (%) ([5]; 10 mg/kg)	Inhibition Rate (%) ([5]; 50 mg/kg)	inhibition in vivo at 40 mg/kg [6] [%]	IL-α Inhibition rate (conc.) ([7]; 40 mg/kg)	inhibition at 1 µM [8] [%]	inhibition at 10 µM [8] [%]	inhibition at 100 µM [8] [%]	inhibition at 1000 µM [8] [%]	Inhibition Rate (%) ([9]; 2 mg/kg)	Inhibition Rate (%) ([9]; 10 mg/kg)	Inhibition Rate (%) ([9]; 50 mg/kg)	inhibition at 0.1 µg/mL [10] [%]	inhibition at 300 µg/mL [11] [%]	also measured
O=C1OCCc2ccncc21 [Ex. 3, 3,4-dihydro-pyrano[3,4-c]pyridine-1-on]	90	71% (40 mg/kg)	33	56	57	48% (40 mg/kg)	76	92	75	65% (40 mg/kg)	34	35	43	44	33	51	46	95	24	–
Cc1cc2c(cn1)C(=O)OCC2 [Ex. 6, 6-methyl-3,4-dihydro-pyrano[3,4-c]pyridine-1-on]	84	78% (40 mg/kg)	17	39	69	51% (40 mg/kg)	76	75	39	52% (40 mg/kg)	30	35	36	38	21	36	41	90	23	–
C=Cc1cncc2c1CCOC2=O [Ex. 9, 5-vinyl-3,4-dihydro-pyrano[3,4-c]pyridine-1-on]	82	43% (40 mg/kg)	25	44	37	45% (40 mg/kg)	73	76	59	62% (40 mg/kg)	37	38	39	41	21	29	39	93	38	–
COc1ccc2c(c1)c(CC(=O)O)c(C)n2C(=O)c1ccc(Cl)cc1 [Indomethacin, reference compound]	–	–	–	–	–	–	–	–	–	–	–	–	–	–	–	–	–	–	–	inhibition in vivo at 200 mg/kg [12]: 46%; inhibition at 200 µg/mL ([1]; test conc. 200 μg/mL): 37%; IL-6 Inhibition rate (conc.) ([2]; 200 mg/kg): 60% (200 mg/kg); INF-γ Inhibition rate (conc.) ([4]; 200 mg/kg): 13% (200 mg/kg); IL-α Inhibition rate (conc.) ([7]; 200 mg/kg): 24% (200 mg/kg); inhibition at 200 µg/mL ([10]; test conc. 200 μg/mL): 25%; inhibition at 200 µg/mL ([11]; test conc. 200 μg/mL): 37%
